# Reference: ChEMBL document CHEMBL1141849, “A beta-carboline alkaloid from the soft coral lignopsis spongiosum” (1999)
# Test system: Escherichia coli
# Experiment: Antibacterial activity against Escherichia coli ATCC 25922 at 50 ug/disk by agar diffusion assay
# Format: functional
# Conditions: read-out: IZ
structure (smiles),measurement,value
C[n+]1cc2[nH]c3ccccc3c2cc1C(=O)[O-],zone of inhibition at 50 µg/disc,11 mm
